pIC50: −log10 of the molar value. Active and inactive are the calls of the source. No rule for the calls is given here.

System in one assay: not listed separately
The assay is described as follows: Chikungunya virus CPE inhibitors, dose response, cell-based, secondary assay, set 3 (AID 651934). As to conditions: Chikungunya virus infected cells, CPE inhibition; at 0.625 µM (top of the series).
With `COc1ccc(NC(=O)c2cc([N+](=O)[O-])ccc2N=C2CN(C)CCN2C)cc1`, the inhibition (as a rule, the drop in the measured response relative to a control, in per cent) was 0.6% (inactive).

Staying with this assay, now noted: Chikungunya virus infected cells, CPE inhibition; at 25 µM (top of the series).
As for `Cc1cccc(C)c1Nc1nc(=O)c2cccnc2s1`, the inhibition was -0.7% (inactive).
Take `CN1CCN(C)C(=Nc2ccc([N+](=O)[O-])cc2C(=O)Nc2ccccc2)C1`: the inhibition is -1.6% (inactive).
On to `O=c1nc(NC2CCNCC2)sc2ncccc12`, for which the inhibition was -0.4% (inactive).
For the compound `CCN1CCN(Cc2nc3ccc([N+](=O)[O-])cc3c(=O)n2-c2ccccc2)CC1`, the inhibition is 1.8% (inactive).
Take `O=c1nc(Nc2ccccc2OCc2ccccc2)sc2ncccc12`: the inhibition was -1% (inactive).
On to `CCN1CCN(CC2Nc3ccc([N+](=O)[O-])cc3C(=O)N2c2ccccc2F)CC1` (centres undefined), for which the inhibition is -0.9% (inactive).
On to `CCN1CCN(Cc2nc3ccc(S(=O)(=O)O)cc3c(=O)n2-c2ccccc2)CC1`, for which the inhibition was -0.2% (inactive).
On to `O=c1nc(Nc2ccc(F)cc2)sc2ncccc12`, for which the inhibition is 0.9% (inactive).
For `O=c1nc(Nc2ccc(OCc3ccccc3)cc2)sc2ncc([N+](=O)[O-])cc12`, the inhibition was -1% (inactive).
Same read-out and setting: the result for `CCN1CCN(c2nc3ccc([N+](=O)[O-])cc3c(=O)n2-c2ccccc2)CC1` reads -1.4% (inactive); that for `O=c1nc(N2CCN(Cc3ccccc3)CC2)sc2ncccc12`, 1.8% (inactive); that for `CCN1CCN(Cc2nc3ccc(C#N)cc3c(=O)n2-c2ccccc2)CC1`, -0.5% (inactive).

The assay is the same for the next values; noted with them: Chikungunya virus infected cells, CPE inhibition; at 50 µM (top of the series).
In the case of `CCN1CCN(C)CC1=Nc1ccc([N+](=O)[O-])cc1C(=O)Nc1ccccc1`, the inhibition is 1.7% (inactive).
As for `CCN(CC)c1nc(=O)c2cccnc2s1`, the inhibition is -5.8% (inactive).
For `O=c1nc(Nc2ccc(CCc3ccccc3)cc2)sc2ncccc12`, the inhibition was 44% (inactive).
For the compound `CCN1CCN(Cc2nc3ccc(-c4nn[nH]n4)cc3c(=O)n2-c2ccccc2)CC1`, the inhibition was 0.6% (inactive).
As for `CNCCCN(C)Cc1nc2ccc([N+](=O)[O-])cc2c(=O)n1-c1ccccc1`, the inhibition is 0.8% (inactive).
`CN1CCN(C)C(=Nc2cc(Cl)c(C#N)cc2C(=O)Nc2ccccc2)C1`: the inhibition was 2.9% (inactive).
As to `CCN1CCN(Cc2nc3ccc([N+](=O)[O-])cc3c(=O)n2-c2ccccc2F)CC1`, the inhibition is -3.4% (inactive).
On to `CCN1CCN(Cc2nc3ccc([N+](=O)[O-])cc3c(=O)n2Cc2ccccc2)CC1`, for which the inhibition is 5.3% (inactive).
With `O=c1c2cc([N+](=O)[O-])ccc2nc(CN2CCCNCC2)n1-c1ccccc1`, the inhibition was 4.1% (inactive).
The same measure, in the same setting: the figure for `CN1CCN(C)C(=Nc2ccc(C#N)cc2C(=O)Nc2cccc(F)c2)C1` is 3.5% (inactive); for `O=C1CN(Cc2nc3ccc([N+](=O)[O-])cc3c(=O)n2-c2ccccc2F)CCN1` it is 1.2% (inactive).
For `COc1ccc(Nc2nc(=O)c3cccnc3s2)cc1`, the inhibition was -5.2% (inactive).
As for `CNCCN(C)Cc1nc2ccc(C#N)cc2c(=O)n1-c1ccccc1F`, the inhibition was 6.3% (inactive).
Regarding `CN1CCN(C)C(=Nc2ccc(F)cc2C(=O)Nc2ccccc2)C1`, the inhibition was 2.2% (inactive).

Another assay has as its system Chikungunya virus infected cells, CPE inhibition. Described as above.
Conditions: not given
Regarding `O=c1nc(Nc2ccc(OCc3ccccc3)cc2)sc2ncc(F)cc12`, the pIC50 (commonly the negative decadic logarithm of the IC50, by convention in mol/L) is 5.44.
Same read-out and setting: the figure for `O=c1nc(Nc2ccc(OCc3ccccc3)cc2)sc2ncccc12` is 5.97.

The values above are taken from PubChem BioAssay AID651934 (Southern Research Specialized Biocontainment Screening …, 2012).
